# Test results from PubChem BioAssay (NCI).
#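 GI50: concentration for 50% inhibition of growth. TGI marks complete inhibition of growth.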
# Assays:
# Assay in all cases: DTP human tumour cell line panel, 384-well format
# HT29 colon = test system: HT29 colon
# BT-549 breast = test system: BT-549 breast
# ACHN renal = test system: ACHN renal
# UACC-257 melanoma = test system: UACC-257 melanoma
# SF-268 CNS = test system: SF-268 CNS
# OVCAR-8 ovarian = test system: OVCAR-8 ovarian
# MCF7 breast = test system: MCF7 breast
# UACC-62 melanoma = test system: UACC-62 melanoma
# IGROV1 ovarian = test system: IGROV1 ovarian
# A498 renal = test system: A498 renal
# DU-145 prostate = test system: DU-145 prostate
# SK-MEL-5 melanoma = test system: SK-MEL-5 melanoma
# K-562 leukemia = test system: K-562 leukemia
# MALME-3M melanoma = test system: MALME-3M melanoma
# KM12 colon = test system: KM12 colon
# PC-3 prostate = test system: PC-3 prostate
# CCRF-CEM leukemia = test system: CCRF-CEM leukemia
# TK-10 renal = test system: TK-10 renal
# HOP-92 NSCLC = test system: HOP-92 NSCLC
# MDA-MB-468 breast = test system: MDA-MB-468 breast
# OVCAR-4 ovarian = test system: OVCAR-4 ovarian
# SK-MEL-2 melanoma = test system: SK-MEL-2 melanoma
# NCI-H522 lung = test system: NCI-H522 lung
# EKVX NSCLC = test system: EKVX NSCLC
# MDA-MB-231 breast = test system: MDA-MB-231 breast
# SN12C renal = test system: SN12C renal
# OVCAR-3 ovarian = test system: OVCAR-3 ovarian
# HL-60(TB) leukemia = test system: HL-60(TB) leukemia
# SNB-19 CNS = test system: SNB-19 CNS
# SF-295 CNS = test system: SF-295 CNS
# SK-OV-3 ovarian = test system: SK-OV-3 ovarian
# SR leukemia = test system: SR leukemia
# NCI-H23 lung = test system: NCI-H23 lung
# NCI-H226 lung = test system: NCI-H226 lung
# NCI/ADR-RES ovarian = test system: NCI/ADR-RES ovarian
# M14 melanoma = test system: M14 melanoma
# RXF 393 renal = test system: RXF 393 renal
# U251 glioblastoma = test system: U251 glioblastoma
# COLO 205 colon = test system: COLO 205 colon
# CAKI-1 renal = test system: CAKI-1 renal
# OVCAR-5 ovarian = test system: OVCAR-5 ovarian
# UO-31 renal = test system: UO-31 renal
# T-47D breast = test system: T-47D breast
# SK-MEL-28 melanoma = test system: SK-MEL-28 melanoma
# MDA-MB-435 melanoma = test system: MDA-MB-435 melanoma
# RPMI-8226 leukemia = test system: RPMI-8226 leukemia
# SNB-75 CNS = test system: SNB-75 CNS
smiles,measurement,setting,value
CNCc1ccc(C)c(NC(=O)c2ccc(Nc3nc(-c4ccccc4)c4ccccc4n3)cc2)c1,GI50,HT29 colon,1.41 µM
same,TGI,HT29 colon,2.74 µM
same,GI50,BT-549 breast,1.7 µM
same,TGI,BT-549 breast,3.09 µM
same,GI50,ACHN renal,1.84 µM
same,TGI,ACHN renal,3.26 µM
same,GI50,UACC-257 melanoma,0.654 µM
same,TGI,UACC-257 melanoma,1.6 µM
same,GI50,SF-268 CNS,1.77 µM
same,TGI,SF-268 CNS,3.17 µM
same,GI50,OVCAR-8 ovarian,1.64 µM
same,TGI,OVCAR-8 ovarian,3.02 µM
same,GI50,MCF7 breast,1.48 µM
same,TGI,MCF7 breast,2.85 µM
same,GI50,UACC-62 melanoma,1.61 µM
same,TGI,UACC-62 melanoma,2.97 µM
same,GI50,IGROV1 ovarian,1.81 µM
same,TGI,IGROV1 ovarian,3.6 µM
same,GI50,A498 renal,1.63 µM
same,TGI,A498 renal,3 µM
same,GI50,DU-145 prostate,1.93 µM
same,TGI,DU-145 prostate,3.48 µM
same,GI50,SK-MEL-5 melanoma,1.39 µM
same,TGI,SK-MEL-5 melanoma,2.69 µM
same,GI50,K-562 leukemia,1.4 µM
same,TGI,K-562 leukemia,2.74 µM
same,GI50,MALME-3M melanoma,1.31 µM
same,TGI,MALME-3M melanoma,2.59 µM
same,GI50,KM12 colon,1.42 µM
same,TGI,KM12 colon,2.75 µM
same,GI50,PC-3 prostate,1.69 µM
same,TGI,PC-3 prostate,3.16 µM
same,GI50,CCRF-CEM leukemia,1.58 µM
same,TGI,CCRF-CEM leukemia,2.94 µM
same,GI50,TK-10 renal,1.81 µM
same,TGI,TK-10 renal,3.29 µM
same,GI50,HOP-92 NSCLC,1.79 µM
same,TGI,HOP-92 NSCLC,3.18 µM
same,GI50,MDA-MB-468 breast,1.71 µM
same,TGI,MDA-MB-468 breast,3.09 µM
same,GI50,OVCAR-4 ovarian,1.86 µM
same,TGI,OVCAR-4 ovarian,3.4 µM
same,GI50,SK-MEL-2 melanoma,1.81 µM
same,TGI,SK-MEL-2 melanoma,3.21 µM
same,GI50,NCI-H522 lung,1.84 µM
same,TGI,NCI-H522 lung,3.25 µM
same,GI50,EKVX NSCLC,1.57 µM
same,TGI,EKVX NSCLC,2.95 µM
same,GI50,MDA-MB-231 breast,1.84 µM
same,TGI,MDA-MB-231 breast,3.25 µM
same,GI50,SN12C renal,1.59 µM
same,TGI,SN12C renal,2.96 µM
same,GI50,OVCAR-3 ovarian,1.78 µM
same,TGI,OVCAR-3 ovarian,3.2 µM
same,GI50,HL-60(TB) leukemia,1.04 µM
same,TGI,HL-60(TB) leukemia,2.4 µM
same,GI50,SNB-19 CNS,1.86 µM
same,TGI,SNB-19 CNS,3.31 µM
same,GI50,SF-295 CNS,1.85 µM
same,TGI,SF-295 CNS,3.26 µM
same,GI50,SK-OV-3 ovarian,1.78 µM
same,TGI,SK-OV-3 ovarian,3.18 µM
same,GI50,SR leukemia,0.342 µM
same,TGI,SR leukemia,0.799 µM
same,GI50,NCI-H23 lung,1.83 µM
same,TGI,NCI-H23 lung,3.27 µM
same,GI50,NCI-H226 lung,1.88 µM
same,TGI,NCI-H226 lung,3.36 µM
same,GI50,NCI/ADR-RES ovarian,1.86 µM
same,TGI,NCI/ADR-RES ovarian,3.33 µM
same,GI50,M14 melanoma,2.03 µM
same,TGI,M14 melanoma,3.47 µM
same,GI50,RXF 393 renal,1.46 µM
same,TGI,RXF 393 renal,2.79 µM
same,GI50,U251 glioblastoma,1.73 µM
same,TGI,U251 glioblastoma,3.13 µM
same,GI50,COLO 205 colon,1.6 µM
same,TGI,COLO 205 colon,2.96 µM
same,GI50,CAKI-1 renal,0.42 µM
same,TGI,CAKI-1 renal,1.36 µM
same,GI50,OVCAR-5 ovarian,2.04 µM
same,TGI,OVCAR-5 ovarian,3.99 µM
same,GI50,UO-31 renal,1.97 µM
same,TGI,UO-31 renal,3.4 µM
same,GI50,T-47D breast,1.45 µM
same,TGI,T-47D breast,2.78 µM
same,GI50,SK-MEL-28 melanoma,1.69 µM
same,TGI,SK-MEL-28 melanoma,3.06 µM
same,GI50,MDA-MB-435 melanoma,1.91 µM
same,TGI,MDA-MB-435 melanoma,3.34 µM
same,GI50,RPMI-8226 leukemia,1.72 µM
same,TGI,RPMI-8226 leukemia,3.1 µM
same,GI50,SNB-75 CNS,1.85 µM
same,TGI,SNB-75 CNS,3.3 µM
